Test results from patent publication US20090176817A1, “Method of Treatment of Diarrhea-Predominant Irritable Bowel Syndrome in a Subject” (priority 2005, published 2009).

System: diarrhea-predominant IBS subjects
Assay: Study S241.3.006: weekly diary questions on adequate relief
Assay type: in vivo, human
Conditions: for Number of months a subject was a responder: One month (Abdominal pain/discomfort) / Number of months a subject was a responder: One month (Abnormal bowel habits) / Number of months a subject was a responder: One month (IBS symptoms) / Number of months a subject was a responder: Three months (Abdominal pain/discomfort) / Number of months a subject was a responder: Three months (Abnormal bowel habits) / Number of months a subject was a responder: Three months (IBS symptoms) / Number of months a subject was a responder: Two months (Abdominal pain/discomfort) / Number of months a subject was a responder: Two months (Abnormal bowel habits) / Number of months a subject was a responder: Two months (IBS symptoms) / Number of months a subject was a responder: Zero months (Abdominal pain/discomfort) / Number of months a subject was a responder: Zero months (Abnormal bowel habits) / Number of months a subject was a responder: Zero months (IBS symptoms) / Overall responder rate, adequate relief of IBS symptoms / Overall responder rate, adequate relief of abdominal pain/discomfort / Overall responder rate, adequate relief of abnormal bowel habits: three-month treatment period; for Number of months a subject was a responder: One month (Abdominal pain/discomfort) / Number of months a subject was a responder: One month (Abnormal bowel habits) / Number of months a subject was a responder: One month (IBS symptoms) / Number of months a subject was a responder: Three months (Abdominal pain/discomfort) / Number of months a subject was a responder: Three months (Abnormal bowel habits) / Number of months a subject was a responder: Three months (IBS symptoms) / Number of months a subject was a responder: Two months (Abdominal pain/discomfort) / Number of months a subject was a responder: Two months (Abnormal bowel habits) / Number of months a subject was a responder: Two months (IBS symptoms) / Number of months a subject was a responder: Zero months (Abdominal pain/discomfort) / Number of months a subject was a responder: Zero months (Abnormal bowel habits) / Number of months a subject was a responder: Zero months (IBS symptoms): monthly LOCF
Method: The study was conducted in 129 study centers in the United States. At total of 2080 subjects consented to participate, and 711 subjects were randomized. A total of 692 subjects were analyzed for efficacy and 701 subjects were analyzed for safety. Diagnosis and main criteria for inclusion were IBS subjects satisfying the Rome I criteria (1992); the diarrhea predominant sub-population of the Rome II criteria; and a minimum abdominal pain/discomfort, stool frequency and consistency determined during the run-in period. Subjects were treated with cilansetron 2 mg tablets given orally TID or matching placebo tablets given orally TID for 12 weeks double-blind treatment.
The primary efficacy parameter was the number of months that a subject was a responder for IBS symptoms (abdominal pain, abdominal discomfort, abnormal bowel habits) over the 12-week treatment period. A responder for a month (monthly responder) was defined as a subject who answered the weekly question with “yes” at least twice for that month.
Studies S24 1.3.OO6, S24 1.3.0 1 1, and S24 1.3.009 used the following efficacy measurements: • The subjects answered the following three questions with “yes” or “no” using a phone diary at the end of each week: • a) During the last week, did you experience adequate relief of your IBS symptoms, such as abdominal pain, abdominal discomfort, abnormal bowel habits? • b) During the last week, did you experience adequate relief of your abdominal pain and/or discomfort? • c) During the last week, did you experience adequate relief of your abnormal bowel habits? • The subjects rated the following symptoms using the phone diary at the end of each day: • abdominal pain/discomfort (five-point scale); • stool consistency (seven-point Bristol Stool Scale); • stool frequency (number of bowel movements each day); • urgency (five-point scale); • straining (yes or no); • feeling of incomplete defecation (yes or no); • bloating or feeling of abdominal distension (five-point scale). • In Studies S241 A006 and S241.3.009, subjects completed the IBS-QOL Survey at Baseline (Day 1) and at the end of treatment. In Study S24 1.3.0 1 1, subjects completed the IBS-QOL Survey at Baseline (Day 1), at the end of the three-month treatment period, and at the end of rerandomized treatment.
In all three pivotal efficacy studies, the primary and main secondary efficacy parameters were based on the weekly diary questions on adequate relief and included the following: • 1. Number of months (one month equals four weeks) that a subject was a responder for the weekly diary questions on adequate relief. A responder for a month (monthly responder) was defined as a subject who answered the weekly question with “yes” at least twice for that month. For Studies S241.3.006 and S241.3.011, the primary efficacy parameter was the number of months that a subject was a responder for IBS symptoms during the 12-week treatment period. The two main secondary efficacy parameters were the number of months that a subject was a responder for abdominal pain/discomfort and abnormal bowel habits during the 12-week treatment period. For Study S241.3.009, the number of months that a subject was a responder for the weekly diary questions on adequate relief during Months 1 to 3 (the first 12 weeks) and Months 1 to 6 (24-week) was an additional key secondary efficacy parameter. • 2. Overall responder rate for the weekly diary questions on adequate relief. A responder was defined as a subject who answered the weekly question with “yes” for at least half of the answers available with a minimum of four weeks treatment duration. If a subject had less than four weeks treatment duration, the subject was considered a non-responder. The overall responder rate was the percentage of responders within a treatment group. For Study S241.3.009, the primary efficacy parameter was the overall responder rate for IBS symptoms during the 26-week treatment period. […]

[1] = Duration of IBS: ≦24 months, ITT, 2 mg TID
[2] = Female subjects, observed case, ITT, 2 mg TID
[3] = Male subjects, observed case, ITT, 2 mg TID

Cc1nccn1C[C@H]1CCc2c(c3cccc4c3n2CCC4)C1=O [Cilansetron, (R)-(−)-4,5,6,8,9,10-hexahydro-10-[(2-methyl-1H-imidazol-1-yl)methyl]-11H-pyrido-[3,2,1-jk]-carbazol-11-one]
Number of subjects who were responders during the three-month treatment period: Adequate relief of abnormal bowel habits (Duration of IBS: ≦24 months, 2 mg TID, observed case, ITT): 27 (53) n (%)
Number of months a subject was a responder: One month (Abdominal pain/discomfort) [1]: 7 (14) n (%)
Number of months a subject was a responder: One month (Abnormal bowel habits) [1]: 4 (8) n (%)
Number of months a subject was a responder: One month (IBS symptoms) [1]: 5 (10) n (%)
Number of months a subject was a responder: Three months (Abdominal pain/discomfort) [1]: 25 (49) n (%)
Number of months a subject was a responder: Three months (Abnormal bowel habits) [1]: 22 (43) n (%)
Number of months a subject was a responder: Three months (IBS symptoms) [1]: 19 (37) n (%)
Number of months a subject was a responder: Two months (Abdominal pain/discomfort) [1]: 4 (8) n (%)
Number of months a subject was a responder: Two months (Abnormal bowel habits) [1]: 7 (14) n (%)
Number of months a subject was a responder: Two months (IBS symptoms) [1]: 8 (16) n (%)
Number of months a subject was a responder: Zero months (Abdominal pain/discomfort) [1]: 15 (29) n (%)
Number of months a subject was a responder: Zero months (Abnormal bowel habits) [1]: 18 (35) n (%)
Number of months a subject was a responder: Zero months (IBS symptoms) [1]: 19 (37) n (%)
Number of months a subject was a responder: One month (Abdominal pain/discomfort) (Female subjects, ITT, 2 mg TID): 32 (13) n (%)
Number of months a subject was a responder: One month (Abnormal bowel habits) (Female subjects, ITT, 2 mg TID): 27 (11) n (%)
Number of months a subject was a responder: One month (IBS symptoms) (Female subjects, ITT, 2 mg TID): 36 (15) n (%)
Number of months a subject was a responder: Three months (Abdominal pain/discomfort) (Female subjects, ITT, 2 mg TID): 103 (42) n (%)
Number of months a subject was a responder: Three months (Abnormal bowel habits) (Female subjects, ITT, 2 mg TID): 104 (43) n (%)
Number of months a subject was a responder: Three months (IBS symptoms) (Female subjects, ITT, 2 mg TID): 94 (39) n (%)
Number of months a subject was a responder: Two months (Abdominal pain/discomfort) (Female subjects, ITT, 2 mg TID): 38 (16) n (%)
Number of months a subject was a responder: Two months (Abnormal bowel habits) (Female subjects, ITT, 2 mg TID): 37 (15) n (%)
Number of months a subject was a responder: Two months (IBS symptoms) (Female subjects, ITT, 2 mg TID): 38 (16) n (%)
Number of months a subject was a responder: Zero months (Abdominal pain/discomfort) (Female subjects, ITT, 2 mg TID): 70 (29) n (%)
Number of months a subject was a responder: Zero months (Abnormal bowel habits) (Female subjects, ITT, 2 mg TID): 75 (31) n (%)
Number of months a subject was a responder: Zero months (IBS symptoms) (Female subjects, ITT, 2 mg TID): 75 (31) n (%)
Overall responder rate, adequate relief of IBS symptoms [2]: 127 (52) n (%)
Overall responder rate, adequate relief of abdominal pain/discomfort [2]: 134 (55) n (%)
Overall responder rate, adequate relief of abnormal bowel habits [2]: 135 (56) n (%)
Number of months a subject was a responder: One month (Abdominal pain/discomfort) (Male subjects, ITT, 2 mg TID): 10 (10) n (%)
Number of months a subject was a responder: One month (Abnormal bowel habits) (Male subjects, ITT, 2 mg TID): 13 (13) n (%)
Number of months a subject was a responder: One month (IBS symptoms) (Male subjects, ITT, 2 mg TID): 9 (9) n (%)
Number of months a subject was a responder: Three months (Abdominal pain/discomfort) (Male subjects, ITT, 2 mg TID): 36 (36) n (%)
Number of months a subject was a responder: Three months (Abnormal bowel habits) (Male subjects, ITT, 2 mg TID): 25 (25) n (%)
Number of months a subject was a responder: Three months (IBS symptoms) (Male subjects, ITT, 2 mg TID): 25 (25) n (%)
Number of months a subject was a responder: Two months (Abdominal pain/discomfort) (Male subjects, ITT, 2 mg TID): 9 (9) n (%)
Number of months a subject was a responder: Two months (Abnormal bowel habits) (Male subjects, ITT, 2 mg TID): 15 (15) n (%)
Number of months a subject was a responder: Two months (IBS symptoms) (Male subjects, ITT, 2 mg TID): 15 (15) n (%)
Number of months a subject was a responder: Zero months (Abdominal pain/discomfort) (Male subjects, ITT, 2 mg TID): 46 (46) n (%)
Number of months a subject was a responder: Zero months (Abnormal bowel habits) (Male subjects, ITT, 2 mg TID): 48 (48) n (%)
Number of months a subject was a responder: Zero months (IBS symptoms) (Male subjects, ITT, 2 mg TID): 52 (51) n (%)
Overall responder rate, adequate relief of IBS symptoms [3]: 41 (41) n (%)
Overall responder rate, adequate relief of abdominal pain/discomfort [3]: 45 (45) n (%)
Overall responder rate, adequate relief of abnormal bowel habits [3]: 39 (39) n (%)
Overall responder rate, IBS symptoms (females): 52%
Overall responder rate, abdominal pain/discomfort (females): 55%
Overall responder rate, abnormal bowel habits (females): 56%
Overall responder rate, IBS symptoms (males): 41%
Overall responder rate, abdominal pain/discomfort (males): 45%
Overall responder rate, abnormal bowel habits (males): 39%
Overall responder rate, abdominal pain/discomfort (non-Caucasians): 48%
